Assay results published in PubChem BioAssay AID2060327 (Molecular Pharmacology Branch, DTP, NCI, 2025).
pIC50: −log10 of the molar value.

System: PC-3 multi-cell spheroids, viability
Experiment: Anticancer human tumor PC-3 cell line growth inhibition [IpAb];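 note: spheroids exposed to compounds for 7 days before readout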;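 for viability, T/C: 100% = DMSO vehicle control wells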
Conditions: for pIC50: curve of first compound; for viability, T/C: stronger effect = lower value
Summary of the method: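 Multi-cell spheroids of 60% tumour cells, 25% HUVEC and 15% MSC in ultra-low-attachment U-bottom wells, treated with agents combined with ipatasertib or abemaciclib. Half-log ranges top out near clinical Cmax, or 10 microM when Cmax is unknown.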

[1] = second compound 0.01 µM, first compound 0.0316 µM
[2] = second compound 0.01 µM, first compound 0.1 µM
[3] = second compound 0.01 µM, first compound 0.316 µM
[4] = second compound 0.01 µM, first compound 1 µM
[5] = second compound 0.01 µM, first compound 3.16 µM
[6] = second compound 0.01 µM, first compound 10 µM
[7] = second compound 0.0316 µM, first compound 0.0316 µM
[8] = second compound 0.0316 µM, first compound 0.1 µM
[9] = second compound 0.0316 µM, first compound 0.316 µM
[10] = second compound 0.0316 µM, first compound 1 µM
[11] = second compound 0.0316 µM, first compound 3.16 µM
[12] = second compound 0.0316 µM, first compound 10 µM
[13] = second compound 0.1 µM, first compound 0.0316 µM
[14] = second compound 0.1 µM, first compound 0.1 µM
[15] = second compound 0.1 µM, first compound 0.316 µM
[16] = second compound 0.1 µM, first compound 1 µM
[17] = second compound 0.1 µM, first compound 3.16 µM
[18] = second compound 0.1 µM, first compound 10 µM
[19] = second compound 0.316 µM, first compound 0.0316 µM
[20] = second compound 0.316 µM, first compound 0.1 µM
[21] = second compound 0.316 µM, first compound 0.316 µM
[22] = second compound 0.316 µM, first compound 1 µM
[23] = second compound 0.316 µM, first compound 3.16 µM
[24] = second compound 0.316 µM, first compound 10 µM
[25] = second compound 1 µM, first compound 0.0316 µM
[26] = second compound 1 µM, first compound 0.1 µM
[27] = second compound 1 µM, first compound 0.316 µM
[28] = second compound 1 µM, first compound 1 µM
[29] = second compound 1 µM, first compound 3.16 µM
[30] = second compound 1 µM, first compound 10 µM

Row | Structure (SMILES) | pIC50 (second compound 0.01 µM) | pIC50 (second compound 0.0316 µM) | pIC50 (second compound 0.1 µM) | pIC50 (second compound 0.316 µM) | pIC50 (second compound 1 µM) | viability, T/C [1] | viability, T/C [2] | viability, T/C [3] | viability, T/C [4] | viability, T/C [5] | viability, T/C [6] | viability, T/C [7] | viability, T/C [8] | viability, T/C [9] | viability, T/C [13] | viability, T/C [14] | viability, T/C [19] | viability, T/C [20] | viability, T/C [25] | viability, T/C [26] | further results
1 | C=CC(=O)N1CCN(c2nc(=O)n(-c3c(C)ccnc3C(C)C)c3nc(-c4c(O)cccc4F)c(F)cc23)C(C)C1 (stereo not given) + CCN1CCN(Cc2ccc(Nc3ncc(F)c(-c4cc(F)c5nc(C)n(C(C)C)c5c4)n3)nc2)CC1 | < 5.00 | < 5.00 | < 5.00 | < 5.00 | 5.28 | 84.3% | 96% | 98.6% | 101% | 114% | 116% | 51.8% | 57.3% | 69.8% | 58.1% | 60.2% | 65.2% | 67.8% | 56.3% | 65.5% | viability, T/C [10]: 79.2%; viability, T/C [11]: 107%; viability, T/C [12]: 78.5%; viability, T/C [15]: 60.4%; viability, T/C [16]: 54.7%; viability, T/C [17]: 64.2%; viability, T/C [18]: 74.8%; viability, T/C [21]: 68.4%; viability, T/C [22]: 70.6%; viability, T/C [23]: 61%; viability, T/C [24]: 48.2%; viability, T/C [27]: 60.5%; viability, T/C [28]: 59.1%; viability, T/C [29]: 60.3%; viability, T/C [30]: 37.5%
2 | Cn1ncc(Cl)c1-c1cc(C(=O)NC(CN)Cc2cccc(F)c2)sc1Cl (stereo not given) + CCN1CCN(Cc2ccc(Nc3ncc(F)c(-c4cc(F)c5nc(C)n(C(C)C)c5c4)n3)nc2)CC1 | 6.90 | 7.00 | 7.20 | 7.28 | > 7.50 | 70.5% | 55.3% | 35.8% | 17.5% | 15.5% | 0.14% | 57.2% | 53% | 26.9% | 53.2% | 48.3% | 56.5% | 44% | 46.3% | 38.9% | viability, T/C [10]: 13.8%; viability, T/C [11]: 13.8%; viability, T/C [12]: 0.1%; viability, T/C [15]: 17.5%; viability, T/C [16]: 13.3%; viability, T/C [17]: 9.97%; viability, T/C [18]: 0.1%; viability, T/C [21]: 19.4%; viability, T/C [22]: 13.9%; viability, T/C [23]: 11.6%; viability, T/C [24]: 0.16%; viability, T/C [27]: 28%; viability, T/C [28]: 17.2%; viability, T/C [29]: 12.1%; viability, T/C [30]: 0.16%
3 | Cn1ncnc1[C@H]1c2n[nH]c(=O)c3cc(F)cc(c23)N[C@@H]1c1ccc(F)cc1 + CCN1CCN(Cc2ccc(Nc3ncc(F)c(-c4cc(F)c5nc(C)n(C(C)C)c5c4)n3)nc2)CC1 | 8.04 | 8.65 | 9.10 | 7.55 | 8.29 | 46% | 44.3% | – | – | – | – | 48% | 39% | – | 44% | 42.7% | 47.6% | 37.8% | 44.6% | 29.4% | viability, T/C (second compound 0.01 µM, first compound 0.000316 µM): 82%; viability, T/C (second compound 0.01 µM, first compound 0.001 µM): 61.4%; viability, T/C (second compound 0.01 µM, first compound 0.00316 µM): 60.6%; viability, T/C (second compound 0.01 µM, first compound 0.01 µM): 47.1%; viability, T/C (second compound 0.0316 µM, first compound 0.000316 µM): 61.5%; viability, T/C (second compound 0.0316 µM, first compound 0.001 µM): 50.8%; viability, T/C (second compound 0.0316 µM, first compound 0.00316 µM): 47.3%; viability, T/C (second compound 0.0316 µM, first compound 0.01 µM): 49.3%; viability, T/C (second compound 0.1 µM, first compound 0.000316 µM): 48.2%; viability, T/C (second compound 0.1 µM, first compound 0.001 µM): 50.3%; viability, T/C (second compound 0.1 µM, first compound 0.00316 µM): 52.1%; viability, T/C (second compound 0.1 µM, first compound 0.01 µM): 48.6%; viability, T/C (second compound 0.316 µM, first compound 0.000316 µM): 59.6%; viability, T/C (second compound 0.316 µM, first compound 0.001 µM): 58.2%; viability, T/C (second compound 0.316 µM, first compound 0.00316 µM): 64%; viability, T/C (second compound 0.316 µM, first compound 0.01 µM): 54.5%; viability, T/C (second compound 1 µM, first compound 0.000316 µM): 61%; viability, T/C (second compound 1 µM, first compound 0.001 µM): 48.8%; viability, T/C (second compound 1 µM, first compound 0.00316 µM): 46.5%; viability, T/C (second compound 1 µM, first compound 0.01 µM): 49.6%
